Calls of active or inactive are those of the source.
Experiments:
Streptococcus = assay: GAS UMAA2166 growth inhibition – luminescence, BacTiterGlo, counter-screen for streptokinase expression inhibitor project, dose response (AID 1915); format: functional, organism-based;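 note: potency for reduction of bacterial viability or growth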
[1] = system: Streptococcus sp. 'group A'; assay: Streptococcus pyogenes SK(-)GAS viability under kanamycin – luminescence, BacTiterGlo, confirmation, counter-screen for streptokinase expression inhibitor project, dose response (AID 1900); format: functional, organism-based
Streptokinase A = target: T1, Streptokinase A (Streptococcus pyogenes serotype M1, UniProt P10520); assay: viability-normalized secreted streptokinase activity reduction – plasminogen activation absorbance, OD405, dose response (AID 1914); format: functional, Streptococcus pyogenes M1 GAS;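 note: secreted streptokinase activity via plasminogen activation per viability signal from cell pellet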
T1 sequence (P10520 whole entry): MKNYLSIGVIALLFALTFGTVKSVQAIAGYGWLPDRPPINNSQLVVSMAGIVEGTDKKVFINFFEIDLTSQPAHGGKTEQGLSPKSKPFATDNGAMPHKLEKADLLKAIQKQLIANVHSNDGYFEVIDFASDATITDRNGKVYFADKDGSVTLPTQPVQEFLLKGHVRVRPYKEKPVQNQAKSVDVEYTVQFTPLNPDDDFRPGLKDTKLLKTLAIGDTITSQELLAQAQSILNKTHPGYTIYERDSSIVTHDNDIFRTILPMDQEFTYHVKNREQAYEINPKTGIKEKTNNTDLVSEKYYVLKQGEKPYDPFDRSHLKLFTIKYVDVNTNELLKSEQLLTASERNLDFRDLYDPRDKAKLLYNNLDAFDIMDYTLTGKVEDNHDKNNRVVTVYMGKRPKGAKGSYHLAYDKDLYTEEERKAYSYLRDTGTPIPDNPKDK

[2] = target: Small ubiquitin-related modifier 1 (Homo sapiens, UniProt P63165); assay: SUMO1 protein interaction blockers, potency – biochemical, fluorescence polarization, uHTS hits, dose response (AID 624382); format: functional; details: read-out: IC50_Mean
Small ubiquitin-related modifier 1, sequence (P63165 whole entry): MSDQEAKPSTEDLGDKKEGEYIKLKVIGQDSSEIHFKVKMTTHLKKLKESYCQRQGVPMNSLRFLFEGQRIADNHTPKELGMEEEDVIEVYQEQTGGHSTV

[3] = target: Small ubiquitin-related modifier 2 (Homo sapiens, UniProt P61956); assay: SUMO2 binding disruption by SUMO1 hits – biochemical, FRET, human SUMO2, uHTS hits, selectivity assay for SUMO1 interaction inhibitor project, dose response (AID 624384); format: functional; details: read-out: IC50_Mean
Small ubiquitin-related modifier 2, sequence (P61956 whole entry): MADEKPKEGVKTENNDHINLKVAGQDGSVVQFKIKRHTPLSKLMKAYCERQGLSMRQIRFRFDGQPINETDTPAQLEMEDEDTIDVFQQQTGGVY

Genome polyprotein = Genome polyprotein (dengue virus type 2, UniProt P29990); assay: flavivirus cap methylation enzyme inhibition – biochemical, confirmation dose response, primary screen (AID 588689); format: functional
Genome polyprotein, sequence (P29990 2492-3391 limits assumed): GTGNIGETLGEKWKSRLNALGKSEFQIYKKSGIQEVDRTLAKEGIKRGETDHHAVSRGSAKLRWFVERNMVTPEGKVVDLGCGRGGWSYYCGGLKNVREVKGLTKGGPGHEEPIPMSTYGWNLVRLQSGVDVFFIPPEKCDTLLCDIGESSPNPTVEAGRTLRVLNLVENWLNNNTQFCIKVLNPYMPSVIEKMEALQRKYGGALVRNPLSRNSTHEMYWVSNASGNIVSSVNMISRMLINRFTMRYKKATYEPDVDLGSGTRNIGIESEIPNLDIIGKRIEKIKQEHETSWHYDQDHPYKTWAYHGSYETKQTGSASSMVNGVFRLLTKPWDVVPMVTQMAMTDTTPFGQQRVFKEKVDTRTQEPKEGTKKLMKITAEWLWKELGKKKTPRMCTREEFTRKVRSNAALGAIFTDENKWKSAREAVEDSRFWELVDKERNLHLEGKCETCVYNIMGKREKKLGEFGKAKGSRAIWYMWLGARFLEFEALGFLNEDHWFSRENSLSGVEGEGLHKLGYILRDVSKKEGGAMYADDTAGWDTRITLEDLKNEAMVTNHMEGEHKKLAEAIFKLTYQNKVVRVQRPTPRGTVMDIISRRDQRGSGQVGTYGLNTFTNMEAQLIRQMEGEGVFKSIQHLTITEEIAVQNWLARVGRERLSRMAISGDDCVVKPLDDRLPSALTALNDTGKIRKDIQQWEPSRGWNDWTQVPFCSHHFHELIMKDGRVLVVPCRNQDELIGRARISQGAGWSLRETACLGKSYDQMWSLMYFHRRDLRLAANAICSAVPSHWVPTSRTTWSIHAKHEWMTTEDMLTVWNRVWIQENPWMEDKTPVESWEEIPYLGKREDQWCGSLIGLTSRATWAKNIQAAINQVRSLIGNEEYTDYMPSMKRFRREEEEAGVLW

Protein RecA = target: T2, Protein RecA (Mycobacterium tuberculosis, UniProt P9WHJ3); assay: Fluorescence Cell-Free Homogeneous Dose Retest to Identify Inhibitors of RecA-Intein Splicing Activity. [Related pubchem assays (depositor defined):AID2097, AID2223, AID489010, AID492950]; format: functional
T2 sequence (P9WHJ3 whole entry): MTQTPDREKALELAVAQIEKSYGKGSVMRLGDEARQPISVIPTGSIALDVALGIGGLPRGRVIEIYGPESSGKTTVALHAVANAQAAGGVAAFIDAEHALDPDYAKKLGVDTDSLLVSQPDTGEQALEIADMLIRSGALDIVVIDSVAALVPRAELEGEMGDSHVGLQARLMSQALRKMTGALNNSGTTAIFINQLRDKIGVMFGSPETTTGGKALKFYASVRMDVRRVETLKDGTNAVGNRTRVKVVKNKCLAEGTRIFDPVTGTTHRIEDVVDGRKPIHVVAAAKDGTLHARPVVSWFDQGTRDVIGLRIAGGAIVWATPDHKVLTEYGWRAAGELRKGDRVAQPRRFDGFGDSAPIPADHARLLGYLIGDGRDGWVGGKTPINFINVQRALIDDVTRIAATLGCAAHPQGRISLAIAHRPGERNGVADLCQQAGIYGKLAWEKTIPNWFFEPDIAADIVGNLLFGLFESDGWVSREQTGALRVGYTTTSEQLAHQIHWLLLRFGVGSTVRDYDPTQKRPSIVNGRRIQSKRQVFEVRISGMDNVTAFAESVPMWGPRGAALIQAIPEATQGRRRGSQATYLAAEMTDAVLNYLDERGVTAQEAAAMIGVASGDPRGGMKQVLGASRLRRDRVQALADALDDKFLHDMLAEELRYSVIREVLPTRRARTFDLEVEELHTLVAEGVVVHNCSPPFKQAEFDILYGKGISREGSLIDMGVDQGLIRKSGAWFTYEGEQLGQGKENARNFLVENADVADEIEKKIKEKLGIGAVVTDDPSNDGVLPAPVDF

[4] = target: T3, Replicative DNA helicase DnaB (Mycobacterium tuberculosis, UniProt P9WMR3); assay: DnaB intein splicing inhibitors, dose response, biochemical, cell-free fluorescence (AID 449749); format: functional
T3 sequence (P9WMR3 whole entry): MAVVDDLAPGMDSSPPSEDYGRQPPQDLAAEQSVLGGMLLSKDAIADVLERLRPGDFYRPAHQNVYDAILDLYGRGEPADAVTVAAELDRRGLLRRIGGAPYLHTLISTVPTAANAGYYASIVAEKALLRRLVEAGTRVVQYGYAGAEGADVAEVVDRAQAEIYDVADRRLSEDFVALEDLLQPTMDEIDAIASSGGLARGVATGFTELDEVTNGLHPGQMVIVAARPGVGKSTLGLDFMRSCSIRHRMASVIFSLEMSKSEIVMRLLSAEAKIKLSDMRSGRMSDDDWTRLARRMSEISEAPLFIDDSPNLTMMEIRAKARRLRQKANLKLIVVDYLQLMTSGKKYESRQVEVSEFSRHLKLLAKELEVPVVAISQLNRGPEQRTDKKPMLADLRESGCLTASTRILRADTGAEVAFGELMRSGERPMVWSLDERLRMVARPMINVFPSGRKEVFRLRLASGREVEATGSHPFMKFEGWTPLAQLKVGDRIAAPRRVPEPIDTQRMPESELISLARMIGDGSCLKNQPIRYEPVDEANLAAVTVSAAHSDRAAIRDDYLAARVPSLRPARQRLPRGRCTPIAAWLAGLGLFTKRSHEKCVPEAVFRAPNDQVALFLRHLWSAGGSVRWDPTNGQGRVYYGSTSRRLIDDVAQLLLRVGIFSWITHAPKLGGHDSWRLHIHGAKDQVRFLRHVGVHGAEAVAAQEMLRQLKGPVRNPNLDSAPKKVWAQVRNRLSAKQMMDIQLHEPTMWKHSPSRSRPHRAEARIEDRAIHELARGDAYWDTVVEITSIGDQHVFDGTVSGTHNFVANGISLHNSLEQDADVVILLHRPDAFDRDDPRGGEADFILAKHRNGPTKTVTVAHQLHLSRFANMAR

[5] = target: T4, Sentrin-specific protease 8 (Homo sapiens, UniProt Q96LD8); format: functional
T4 sequence (Q96LD8 whole entry): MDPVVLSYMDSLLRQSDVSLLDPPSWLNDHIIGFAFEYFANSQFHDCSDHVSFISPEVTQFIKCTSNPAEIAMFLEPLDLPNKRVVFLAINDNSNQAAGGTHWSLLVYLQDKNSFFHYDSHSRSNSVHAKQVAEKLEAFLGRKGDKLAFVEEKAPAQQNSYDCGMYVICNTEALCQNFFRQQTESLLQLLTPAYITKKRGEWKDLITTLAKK

In the case of `CCN1/C(=C/c2ccc3cc(C)ccc3[n+]2CC)Sc2cc(C)c(C)cc21`, the EC50 (Streptococcus) is reported as 8.85 µM (active), the EC50 [1] is reported as 8.22 µM (active) and the EC50 (Streptokinase A) is reported as > 150 µM (not active).
In the case of `Nc1ccc2nc3c(O)nc(S)nc3nc2c1`, the IC50 [2] is reported as 5.69 µM (active) and the IC50 [3] is reported as 0.584 µM (active).
`Cc1oc2c(c1C(=O)c1ccccc1)C(=O)C(=O)c1ccccc1-2` was tested, and the IC50 (Genome polyprotein) was 48.4 µM (active).
For `O=C1CCCC2=C1C1(O)C(=O)c3ccccc3C1(O)O2` (stereo not drawn), the EC50 (Protein RecA) was 11.5 µM (active), the AC50 [4] was 5.49 µM (active) and the IC50 [5] was 2.52 µM (active).
In the case of `CSc1ccc(C=NNc2ccc(S(=O)(=O)Nc3ccccc3C(=O)O)cc2[N+](=O)[O-])cc1`, the IC50 [2] is reported as 3.23 µM (active) and the IC50 [3] is reported as 53.1 µM (inactive).
In the case of `O=C1C(Cl)=C(NCCN2CCCCC2)C(=O)c2ccccc21`, the EC50 (Protein RecA) is reported as 7.31 µM (active) and the AC50 [4] is reported as 14 µM (active).
With `COc1cc(NCCCNC(C)C)c2nccc(C)c2c1` the IC50 [5] was 3.89 µM (active).
For `CC(/C=C1\SC(=S)N(NS(=O)(=O)c2ccccc2)C1=O)=C\c1ccccc1`, the EC50 (Streptococcus) was > 150 µM (not active), the EC50 [1] was 1.94 µM (active) and the EC50 (Streptokinase A) was 21.4 µM (active). The IC50 (Genome polyprotein) was 29.3 µM (active).

Source: ChEMBL document CHEMBL1201862, “PubChem BioAssay data set” (2004)
